Data reported in PMC10268255 (Proceedings of the National Academy of Sciences of the …, 2023).

Assays:
αVβ6 ectodomain = αVβ6 ectodomain (Homo sapiens, UniProt P06756+P18564); test: Fluorescence polarization; type: binding; conditions: FP competition
αVβ8 ectodomain = αVβ8 ectodomain (Homo sapiens, UniProt P06756+P26012); test: Fluorescence polarization; type: binding; conditions: ratio of FP KDs, αVβ8 vs αVβ6
integrin αVβ6 ectodomain [1] = biological target: integrin αVβ6 ectodomain (UniProt P06756); test: fluorescence polarisation
integrin αVβ8 ectodomain = integrin αVβ8 ectodomain (UniProt P06756 31-992; P26012 43-684); test: fluorescence polarisation
integrin αVβ6 ectodomain [2] = biological target: integrin αVβ6 ectodomain (UniProt P06756 31-992; P18564 22-709); test: fluorescence polarisation

## Ac-GTSTYTSGDQKTIKSTRKKNSGK-NH2 [23-mer]
αVβ6 ectodomain
  Fold higher affinity for αVβ6 than the TGF-β2 9-mer: 20 fold
αVβ8 ectodomain
  Fold lower affinity of αVβ8 compared to αVβ6: 5,500 fold

## Ac-YTSGDQKTIKSTR-NH2 [13-mer]
αVβ8 ectodomain
  Fold lower affinity of αVβ8 compared to αVβ6: 8,100 fold

## human proTGF-β2 C24S, N140R, D5G (shaved) (natural protein)
Integrin αVβ6 ectodomain [1]
  fold higher affinity than the TGF-β2 9-mer: 170 fold

## Ac-YTSGDQKTIKSTR-NH2 [TGF-β2 13-mer peptide Y259TSGDQKTIKSTR271]
Integrin αVβ8 ectodomain
  Kd: 11.4 mM

## Ac-YTSGDQATIKSTR-NH2 (peptide, UniProt P61812 259-271, looked up) [TGF-β2 13-mer peptide K265A]
Integrin αVβ6 ectodomain [2]
  fold increase in affinity over the wild-type 13-mer: 6.3 fold
